The values below come from patent US20230233543A1, “COMPOUNDS FOR THE TREATMENT OF COVID-19” (Dompe' Farmaceutici SPA, priority 2020, published 2023).

The test system of assay [1] is SARS-CoV-2 (BetaCov/Belgium/GHB-03021/2020) in VeroE6-EGFP cells. In words: microbe, parasite or virus in culture. The class given is cell-based. The following applies: for pIC50: Severe acute respiratory syndrome coronavirus 2.
Another assay deals with SARS-CoV-2 3CL-Pro (Severe acute respiratory syndrome coronavirus 2, UniProt P0DTD1). Kind of assay: biochemical. Conditions: read-out: 3CL-Pro Inhibition [%].
The target of the next assay is SARS-CoV-2 PLpro (Severe acute respiratory syndrome coronavirus 2, UniProt P0DTD1). Kind of assay: PLpro enzymatic assay (ISG15-AMC substrate). The assay is classed as biochemical. Conditions: read-out: PL_Pro Inhibition [%].

pIC50: −log10 of the molar value. Counter-ions that a name gives are not always drawn. Like-named read-outs stand apart in the source and are kept apart here.

As to `c1ccc2c(c1)Sc1ccccc1N2C[C@H]1CN2CCC1CC2` (stereo in doubt) [Mequitazine, 10-(Quinuclidin-3-ylmethyl)-10H-phenothiazine], in assay [1], the “% Confluence” value is recorded as 61.74% and the “% Inhibition” value was found to be 62.09%. The negative logarithm of the IC50 (pIC50) in assay [1] (read-out: IC50) is 5.22.

Regarding `Cc1cc(O)c2c(=O)c3c(O)cc(O)c4c5c(O)cc(O)c6c(=O)c7c(O)cc(C)c8c1c2c(c34)c(c78)c65` [Hypericin, 1,3,4,6,8,13-Hexahydroxy-10,11-dimethylphenanthro[1,10,9,8-opqra]perylene-7,14-dione], in assay [1], the “% Confluence” value came out at 20.85% and the negative logarithm of the IC50 (pIC50) is 6.60. Besides, at SARS-CoV-2 3CL-Pro, the inhibition at 20 µM is 45.7%. At SARS-CoV-2 PLpro, the inhibition at 20 µM worked out at 40.1%.

On to `CC(C)c1ccc2c(c1)C(N1CCN(CCO)CC1)Cc1ccc(F)cc1S2` (centres unmarked) [Isofloxythepin, 2-[4-(9-fluoro-3-propan-2-yl-5,6-dihydrobenzo[b][1]benzothiepin-5-yl)piperazin-1-yl]ethanol], for which, in assay [1], the “% Confluence” value worked out at 67.67% and the “% Inhibition” value was determined as 35.39%. In addition, the negative logarithm of the IC50 (pIC50) in assay [1] (read-out: IC50) is 3.97.

For the molecule `CC(C)(C)NCc1ccc(Nc2ccnc3cc(Cl)ccc23)cc1O` [N-tert-Butylisoquine, 2-[(tert-butylamino)methyl]-5-[(7-chloroquinolin-4-yl)amino]phenol], in assay [1], the “% Confluence” value was determined as 77.86% and the “% Inhibition” value is listed as 44.99%.

Regarding `Nc1ccc2cc3ccc(N)cc3nc2c1` [Proflavine, 3,6-diaminoacridine], in assay [1], the “% Confluence” value is reported as 8.56% and the “% Inhibition” value is on record as 208.4%. Moreover, the inhibition at 20 µM at SARS-CoV-2 3CL-Pro (primary screen at 20 µM, without DTT, read at 15 min, normalized to zinc pyrithione (100%) and DMSO (0%)) is 89.9%.

With `O=C(c1ccc(OCCN2CCCCC2)cc1)c1c(-c2ccc(O)cc2)sc2cc(O)ccc12` [Raloxifen hydrochloride, 1-[6-Hydroxy-2-(4-hydroxyphenyl)benzo[b]thien-3-yl]-1-[4-[2-(1-piperidinyl)ethoxy]phenyl]methanone], in assay [1], the “% Confluence” value is listed as 45.26% and the “% Inhibition” value was 70.75%. The pIC50 in assay [1] (read-out: IC50) was 5.01.

In the case of `CC(C)(Sc1cc(C(C)(C)C)c(O)c(C(C)(C)C)c1)Sc1cc(C(C)(C)C)c(OC(=O)CCC(=O)O)c(C(C)(C)C)c1` [Succinobucol, Succinic acid 2,6-di-tert-butyl-4-[1-(3,5-di-tert-butyl-4-hydroxyphenylsulfanyl)-1-methylethylsulfanyl]phenyl monoester], in assay [1], the “% Confluence” value is listed as 18.73% and the “% Inhibition” value is reported as 37.53%.
